Measured values published in patent US6656714B2, “Nucleic acids and proteins of a rat ganglioside GM1-specific α1→2 fucosyltransferase and uses thereof” (Northwest Hospital, priority 1999, dated 2003).

Assays:
[1] = target: T1, full length rat hepatoma α1→2FucT (Rattus norvegicus, UniProt Q10984); test: Enzyme assay of expressed recombinant full length α1→2FucT in homogenates of transfected COS-7 cells, transfer of [14C]fucose to GM1 (TLC); assay type: biochemical; details: for transfer to GM1 in the presence of additive, compared with no detergent or phospholipid: CHAPSO 100 μg, phosphatidylglycerol 250 μg
T1 construct: Full length α1→2FucT cDNA was then cloned into pcDNA 3 vector; expressed in transfected cells; host or cells: COS-7 cells, transient transfection, sonicated homogenate
T1 sequence (Q10984 1-380 isoform Q10984-2): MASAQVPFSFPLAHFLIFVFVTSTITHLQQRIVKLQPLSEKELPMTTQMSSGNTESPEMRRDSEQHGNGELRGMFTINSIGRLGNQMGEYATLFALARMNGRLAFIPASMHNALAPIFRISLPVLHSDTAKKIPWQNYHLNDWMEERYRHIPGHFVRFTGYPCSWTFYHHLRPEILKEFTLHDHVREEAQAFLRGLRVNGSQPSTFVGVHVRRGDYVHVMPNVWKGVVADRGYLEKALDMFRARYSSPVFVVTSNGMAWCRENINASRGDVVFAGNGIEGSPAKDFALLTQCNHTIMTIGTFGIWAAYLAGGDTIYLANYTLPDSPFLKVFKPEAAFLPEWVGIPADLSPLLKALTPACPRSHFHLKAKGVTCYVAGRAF
Description: Expression of full length α1→2FucT cDNA in transfected cells results in membrane-bound enzyme. COS-7 cells were transiently transfected by the DEAE-dextran method (Ausubel, F. M., et al., Current Protocols in Molecular Biology, Wiley, N.Y.) with either FL-RFT-pcDNA3 or FL-RFT(−)-pcDNA3. Four to five days later, the cells were harvested, sonicated in HEPES, glycerol, DTE buffer and assayed for enzyme activity as described previously (Sherwood, A. L., et al., 1998, Arch. Biochem. Biophys. 355:215-221).

[2] = target: T2, catalytic domain of rat hepatoma H35 cell α1→2FucT (Rattus norvegicus, UniProt Q10984); test: α1→2Fucosyltransferase assay, pPROTA-expressed catalytic domain on IgG-agarose beads, transfer of [14C]fucose to glycolipid acceptors (TLC); assay type: biochemical; details: 30 μg acceptor, 2 h at 37° C., 250 μg phosphatidylglycerol, GDP-[14C]fucose
T2 construct: made in house; host or cells: COS-7 cells (secreted fusion protein, captured on IgG-agarose)
T2 sequence (Q10984 28-380 isoform Q10984-2): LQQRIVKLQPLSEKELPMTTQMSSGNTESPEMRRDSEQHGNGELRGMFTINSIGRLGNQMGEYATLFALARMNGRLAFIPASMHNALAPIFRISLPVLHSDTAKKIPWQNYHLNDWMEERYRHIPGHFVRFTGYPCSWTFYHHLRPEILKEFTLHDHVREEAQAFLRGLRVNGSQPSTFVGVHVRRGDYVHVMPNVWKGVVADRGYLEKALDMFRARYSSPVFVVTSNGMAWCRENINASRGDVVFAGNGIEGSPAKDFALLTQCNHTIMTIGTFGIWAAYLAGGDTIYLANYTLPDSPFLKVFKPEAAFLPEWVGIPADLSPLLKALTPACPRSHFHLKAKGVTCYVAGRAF
Protocol: For example, as illustrated in Section 6.3.2, infra, the activity of α1→2fucosyltransferase coupled to the IgG-binding domain of Protein A can be determined in reaction mixtures containing 2.5 μmol of HEPES buffer, pH7.2, 30 μg of GM1. ganglioside or nLc4, 250 μg phosphatidylglycerol, 1 μmol of MnCl2, 0.5 μmol of CDP-choline, 15 nmol of GDP-[^14C]fucose (15,000 cpm/nmol), and bound to IgG-agarose beads in a total volume of 0.1 ml. The reaction mixtures are incubated for 2 h at 37° C., terminated by the addition of 0.1 ml of CHCl3:CH3OH (2:1), streaked onto 4-cm-wide strips of Whatman 3 paper and developed with water overnight. The papers are dried and the labeled product extracted from the origins with 2- to 5-ml washes of CHCl3:CH3OH:H2O (10:5:1). The combined eluates are concentrated to dryness by an N2 stream and dissolved in 20 μl of CHCl3:CH3OH (2:1). A 10-μl aliquot of each is spotted onto a HP-TLC plate (Merck)and developed in a solvent system composed of CHCl3:CH3OH:H2O (60:40:9), 0.02% CaCl2.2H2O. […]
α1→2Fucosyltransferase activity was determined in reaction mixtures containing 2.5 μmol of HEPES buffer, pH7.2, 30 μg of GM1 ganglioside or nLc4, 250 μg phosphatidylglycerol, 1 μmol of MnCl2, 0.5 μmol of CDP-choline, 15 nmol of GDP-[^14C]fucose (15,000 cpm/nmol), and pPROTA-expressed enzyme bound to IgG-agarose beads in a total volume of 0.1 ml. […]

[3] = target: T3, recombinant rat α1→2fucosyltransferase (Rattus norvegicus, UniProt Q10984); test: Preparative in vitro biosynthesis of fucosyl-GM1 with homogenate of COS-7 cells expressing rat α1→2fucosyltransferase (HPTLC); assay type: biochemical; details: 0.5 mg GM1, 2 mg crude cell homogenate, after 24 to 48 hours
T3 construct: Full length α1→2FucT cDNA was then cloned into pcDNA 3 vector; expressed in transfected cells; host or cells: COS-7 cells, transient transfection, sonicated homogenate
T3 sequence (Q10984 1-380 isoform Q10984-2): T1 sequence (Q10984 1-380 isoform Q10984-2)
Protocol: Preparative biosynthesis of fucosyl-GM1 was conducted in reaction mixtures composed of 25 μmol of HEPES buffer, pH 7.2, 10 μmol of MnCl2, 500 μg CHAPSO, 0.5 mg GM1, and 2 mg crude cell homogenate of COS-7 cells transiently transfected with plasmid containing the entire rat α1→2fucosyltransferase coding sequence in a total volume of 0.5 ml. Progress of the reaction was followed with time by withdrawing 2 μl of the reaction mixture and spotting it on an HPTLC plate. The plate was developed in a solvent system composed of CHCL3:CH3OH:H2O, 60:40:9, containing 0.02% CaCl2. Glycolipid bands were determined by orcinol spray (FIG. 9).

[4] = system: α1→2FucT; test: α1→2FucT enzyme activity in liver of AAF-fed rats; assay type: in vivo; details: AAF-fed rat liver sample; none detected in normal liver

With phosphatidylglycerol the “transfer to GM1 in the presence of additive, compared with no detergent or phospholipid” value [1] was “Somewhat less transfer”.

In the case of II^3NeuAcGg4 [GM1], the “transfer of fucose to acceptor” value [2] was “transfer fucose to GM1”, the “conversion of GM1 to fucosyl-GM1” value [3] was “almost complete conversion” and the “transfer of fucose to GM1 by full length enzyme” value ([1]; two hours at 37° C.) was “transfers fucose to GM1 with high efficiency”.

For lactoneotetraosylceramide [nLcOse4Cer], the “transfer of fucose to acceptor” value [2] was “No detectable transfer”.

For C[C@H](CCC(=O)NCCC[N+](C)(C)CC(O)CS(=O)(=O)[O-])[C@H]1CC[C@H]2[C@@H]3[C@H](O)C[C@@H]4C[C@H](O)CC[C@]4(C)[C@H]3C[C@H](O)[C@]12C (stereo partly shown) [CHAPSO], the “transfer to GM1 in the presence of additive, compared with no detergent or phospholipid” value [1] was “Comparable transfer”.

CC(=O)Nc1ccc2c(c1)Cc1ccccc1-2 [AAF, N-2-acetylaminofluorene] was tested, and the “α1→2FucT enzyme activity in liver” value [4] was “moderate level”.
